Several values for one entry are separate records, joined by “and”; a condition that tells them apart may be missing. Equal entries are not always repeated.
Conditions: Liquid, Closed cell (Static) method

CC(C)C [2-methylpropane]
Conditions | vapor or sublimation pressure [kPa]
293.15 K | 302.2
293.58 K | 306.7
295.58 K | 325.6
297.58 K | 345.2
299.59 K | 365.9
301.61 K | 387.6
303.15 K | 404.7
303.62 K | 410.2
305.63 K | 433.9
307.64 K | 458.6
309.65 K | 484.2
311.66 K | 510.9
313.15 K | 531.6
313.69 K | 538.7
315.7 K | 567.9
317.73 K | 598.1
319.72 K | 629
321.75 K | 661.7
323.15 K | 685.6
323.82 K | 696.1
325.77 K | 730.9
327.73 K | 765.3
329.74 K | 802.7
331.72 K | 840.8
333.71 K | 880.5
335.74 K | 922.5
337.79 K | 966.2
339.85 K | 1011.5
341.75 K | 1054.5
343.78 K | 1102.5
343.88 K | 1105.1
345.86 K | 1153.1
347.86 K | 1204.4
349.9 K | 1256.3
351.91 K | 1309.8
353.91 K | 1365.1

FC(F)CC(F)(F)F [1,1,1,3,3-pentafluoropropane]
Conditions | vapor or sublimation pressure
293.15 K | 122.7 kPa
295.08 K | 132.2 kPa
295.57 K | 134.7 kPa
296.57 K | 139.9 kPa
297.57 K | 145.2 kPa
298.57 K | 150.6 kPa and 150.7 kPa
298.58 K | 150.7 kPa
299.61 K | 156.5 kPa
300.61 K | 162.4 kPa
301.62 K | 168.4 kPa
302.63 K | 174.6 kPa
303.15 K | 177.9 kPa
303.64 K | 181 kPa
304.64 K | 187.6 kPa
305.65 K | 194.3 kPa
306.66 K | 201.2 kPa
307.67 K | 208.3 kPa
308.68 K | 215.7 kPa
309.7 K | 223.3 kPa
310.72 K | 231.1 kPa
311.74 K | 239.1 kPa
313.15 K | 250.3 kPa
313.71 K | 255.2 kPa
315.74 K | 272.6 kPa
317.76 K | 290.8 kPa
318.78 K | 300.3 kPa
319.77 K | 309.9 kPa
321.71 K | 329.1 kPa
323.15 K | 344 kPa
323.73 K | 349.9 kPa
325.71 K | 371.6 kPa
327.68 K | 394 kPa
329.67 K | 417.9 kPa
330.68 K | 430.4 kPa
331.7 K | 443.4 kPa
333.71 K | 469.6 kPa
335.73 K | 497.1 kPa
337.74 K | 525.9 kPa
338.75 K | 540.8 kPa
339.77 K | 556.1 kPa
341.82 K | 587.9 kPa
343.82 K | 620.4 kPa
343.88 K | 621 kPa
345.87 K | 654.6 kPa
347.86 K | 689.5 kPa
348.87 K | 707.6 kPa and 707.7 kPa
349.86 K | 725.9 kPa
350.86 K | 744.6 kPa
351.87 K | 763.8 kPa
352.87 K | 783.3 kPa
